Data: US6737383B1, “Herbicidal oxadiazolidines” (priority 1999, dated 2004)

Columns and labels:
cocklebur = experiment: Test B pre/postemergence cocklebur; assay type: in vivo, Xanthium strumarium
Procedure, shortened: (§1)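 Test chemicals in a non-phytotoxic solvent mixture with surfactant were sprayed preemergence onto planted seeds and postemergence onto plants 2 to 18 cm tall (1- to 4-leaf stage). After twelve to sixteen days in a greenhouse, injury was visually rated against untreated controls from 0 (no effect) to 10 (complete control).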

rice = experiment: Test B flood test rice; assay type: in vivo, Oryza sativa
Procedure, shortened: (§2)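 Plants were grown to the 2-leaf stage before treatment with test chemical, then held in a greenhouse for twelve to sixteen days. Injury was visually rated against untreated controls on a 0–10 scale, where 0 is no effect and 10 is complete control.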

wild oat = experiment: Test B pre/postemergence wild oat; assay type: in vivo, Avena fatua
Procedure, shortened: as §1

bamyardgrass = experiment: Test B flood test barnyardgrass; assay type: in vivo, Echinochloa crus-galli
Procedure, shortened: as §2

velvetleaf = experiment: Test B pre/postemergence velvetleaf; assay type: in vivo, Abutilon theophrasti
Procedure, shortened: as §1

wheat = experiment: Test B pre/postemergence wheat; assay type: in vivo, Triticum aestivum
Procedure, shortened: as §1

smallflower flatsedge = experiment: Test B flood test smallflower flatsedge; assay type: in vivo, Cyperus difformis
Procedure, shortened: as §2

corn = experiment: Test B pre/postemergence corn; assay type: in vivo, Zea mays
Procedure, shortened: as §1

bedstraw = experiment: Test B pre/postemergence bedstraw; assay type: in vivo, Galium aparine
Procedure, shortened: as §1

surinam grass = experiment: Test B pre/postemergence surinam grass; assay type: in vivo, Brachiaria decumbens
Procedure, shortened: as §1

crabgrass = experiment: Test B pre/postemergence crabgrass; assay type: in vivo, Digitaria sanguinalis
Procedure, shortened: as §1

giant foxtail = experiment: Test B pre/postemergence giant foxtail; assay type: in vivo, Setaria faberii
Procedure, shortened: as §1

pigweed = experiment: Test B pre/postemergence pigweed; assay type: in vivo, Amaranthus retroflexus
Procedure, shortened: as §1

soybean = experiment: Test B pre/postemergence soybean; assay type: in vivo, Glycine max
Procedure, shortened: as §1

morningglory = experiment: Test B pre/postemergence morningglory; assay type: in vivo, Ipomoea hederacea
Procedure, shortened: as §1

blackgrass = experiment: Test B pre/postemergence blackgrass; assay type: in vivo, Alopecurus myosuroides
Procedure, shortened: as §1

[1] = Preemergence, Rate 62 g/ha, scale of 0 to 10 where 0 is no effect and 10 is complete control
[2] = Preemergence, Rate 250 g/ha, scale of 0 to 10 where 0 is no effect and 10 is complete control
[3] = Preemergence, Rate 500 g/ha, scale of 0 to 10 where 0 is no effect and 10 is complete control
[4] = Rate 62 g/ha, Postemergence, scale 0 to 10 (0 no effect, 10 complete control)
[5] = Rate 125 g/ha, Postemergence, scale of 0 to 10 where 0 is no effect and 10 is complete control
[6] = Rate 250 g/ha, Postemergence, scale of 0 to 10 where 0 is no effect and 10 is complete control
[7] = Rate 500 g/ha, Postemergence, scale 0 to 10, 0 no effect, 10 complete control
[8] = Rate 62 g/ha, headed Pre-emergence (flood test species), scale 0 to 10 (0 no effect, 10 complete control)
[9] = Rate 125 g/ha, Pre-emergence, flood test species, scale 0 to 10 where 0 is no effect and 10 is complete control
[10] = Rate 250 g/ha, Pre-emergence, flood-test species, scale 0 to 10, 0 is no effect, 10 is complete control
[11] = Rate 500 g/ha, Pre-emergence, flood test species, scale 0 to 10 (0 no effect, 10 complete control)

With `C=CCn1c(=O)on(C(=O)N(c2ccc(Cl)cc2)C(C)C2CC2)c1=O` (stereo not drawn) [Compound 325] the “Cocklebur plant response rating” value (cocklebur; [1]) was 0, the “Cocklebur plant response rating (0 to 10 scale)” value (cocklebur; Preemergence, Rate 125 g/ha) was 0 and the “Cocklebur plant response rating” value (cocklebur; [2]) was 0. The “Cocklebur plant response rating” value (cocklebur; [3]) was 0, the “Cocklebur plant response rating” value (cocklebur; [4]) was 0 and the “Cocklebur plant response rating” value (cocklebur; [5]) was 0. For the same compound, the “Plant response rating, Cocklebur” value (cocklebur; [6]) was 0, the “Plant response rating, Cocklebur” value (cocklebur; [7]) was 3 and the “Rice plant response rating” value (rice; [8]) was 0. The “Rice plant response rating” value (rice; [9]) was 0, the “Rice plant response rating” value (rice; [10]) was 0 and the “Rice plant response rating” value (rice; [11]) was 0. For the same compound, the “Wild oats plant response rating” value (wild oat; [1]) was 0, the “Wild oats plant response rating (0 to 10 scale)” value (wild oat; Preemergence, Rate 125 g/ha) was 0 and the “Wild oats plant response rating” value (wild oat; [2]) was 0. For the same compound, the “Wild oats plant response rating” value (wild oat; [3]) was 2, the “Wild oats plant response rating” value (wild oat; [4]) was 0 and the “Wild oats plant response rating” value (wild oat; [5]) was 0. The “Plant response rating, Wild oats” value (wild oat; [6]) was 0, the “Plant response rating, Wild oats” value (wild oat; [7]) was 4 and the “Barnyardgrass plant response rating” value (bamyardgrass; [8]) was 0. For the same compound, the “Barnyardgrass plant response rating” value (bamyardgrass; [9]) was 0, the “Barnyardgrass plant response rating” value (bamyardgrass; [10]) was 0 and the “Barnyardgrass plant response rating” value (bamyardgrass; [11]) was 0. For the same compound, the “Velvetleaf plant response rating” value (velvetleaf; [1]) was 0, the “Velvetleaf plant response rating (0 to 10 scale)” value (velvetleaf; Preemergence, Rate 125 g/ha) was 0 and the “Velvetleaf plant response rating” value (velvetleaf; [2]) was 0. The “Velvetleaf plant response rating” value (velvetleaf; [3]) was 0, the “Velvetleaf plant response rating” value (velvetleaf; [4]) was 0 and the “Velvetleaf plant response rating” value (velvetleaf; [5]) was 0. For the same compound, the “Plant response rating, Velvetleaf” value (velvetleaf; [6]) was 0, the “Plant response rating, Velvetleaf” value (velvetleaf; [7]) was 2 and the “Wheat plant response rating” value (wheat; [1]) was 0. The “Wheat plant response rating (0 to 10 scale)” value (wheat; Preemergence, Rate 125 g/ha) was 0, the “Wheat plant response rating” value (wheat; [2]) was 0 and the “Wheat plant response rating” value (wheat; [3]) was 0. The “Wheat plant response rating” value (wheat; [4]) was 0, the “Wheat plant response rating” value (wheat; [5]) was 0 and the “Plant response rating, Wheat” value (wheat; [6]) was 2. The “Plant response rating, Wheat” value (wheat; [7]) was 5, the “S. Flatsedge plant response rating” value (smallflower flatsedge; [8]) was 0 and the “S. Flatsedge plant response rating” value (smallflower flatsedge; [9]) was 0. The “S. Flatsedge plant response rating” value (smallflower flatsedge; [10]) was 0, the “S. Flatsedge plant response rating” value (smallflower flatsedge; [11]) was 0 and the “Corn plant response rating” value (corn; [1]) was 0. The “Corn plant response rating (0 to 10 scale)” value (corn; Preemergence, Rate 125 g/ha) was 0, the “Corn plant response rating” value (corn; [2]) was 0 and the “Corn plant response rating” value (corn; [3]) was 0. For the same compound, the “Corn plant response rating” value (corn; [4]) was 0, the “Corn plant response rating” value (corn; [5]) was 0 and the “Plant response rating, Corn” value (corn; [6]) was 0. The “Plant response rating, Corn” value (corn; [7]) was 0, the “Bedstraw plant response rating” value (bedstraw; [1]) was 0 and the “Bedstraw plant response rating (0 to 10 scale)” value (bedstraw; Preemergence, Rate 125 g/ha) was 0. The “Bedstraw plant response rating” value (bedstraw; [2]) was 0, the “Bedstraw plant response rating” value (bedstraw; [3]) was 0 and the “Bedstraw plant response rating” value (bedstraw; [4]) was 2. For the same compound, the “Bedstraw plant response rating” value (bedstraw; [5]) was 8, the “B. signalgrass plant response rating” value (surinam grass; [1]) was 0 and the “B. signalgrass plant response rating (0 to 10 scale, 0 is no effect, 10 is complete control)” value (surinam grass; Preemergence, Rate 125 g/ha) was 0. The “B. signalgrass plant response rating” value (surinam grass; [2]) was 0, the “B. signalgrass plant response rating” value (surinam grass; [3]) was 0 and the “B. signalgrass plant response rating” value (surinam grass; [4]) was 0. For the same compound, the “B. signalgrass plant response rating” value (surinam grass; [5]) was 0, the “Plant response rating, B. signalgrass” value (surinam grass; [6]) was 0 and the “Plant response rating, B. signalgrass” value (surinam grass; [7]) was 2. For the same compound, the “Crabgrass plant response rating” value (crabgrass; [1]) was 0, the “Crabgrass plant response rating (0 to 10 scale)” value (crabgrass; Preemergence, Rate 125 g/ha) was 0 and the “Crabgrass plant response rating” value (crabgrass; [2]) was 1. For the same compound, the “Crabgrass plant response rating” value (crabgrass; [3]) was 2, the “Crabgrass plant response rating” value (crabgrass; [4]) was 0 and the “Crabgrass plant response rating” value (crabgrass; [5]) was 0. The “Plant response rating, Crabgrass” value (crabgrass; [6]) was 0, the “Plant response rating, Crabgrass” value (crabgrass; [7]) was 0 and the “Giant foxtail plant response rating” value (giant foxtail; [1]) was 3. For the same compound, the “Giant foxtail plant response rating (0 to 10 scale)” value (giant foxtail; Preemergence, Rate 125 g/ha) was 7, the “Giant foxtail plant response rating” value (giant foxtail; [2]) was 8 and the “Giant foxtail plant response rating” value (giant foxtail; [3]) was 10. For the same compound, the “Giant foxtail plant response rating” value (giant foxtail; [4]) was 0, the “Giant foxtail plant response rating” value (giant foxtail; [5]) was 0 and the “Plant response rating, Giant foxtail” value (giant foxtail; [6]) was 0. For the same compound, the “Plant response rating, Giant foxtail” value (giant foxtail; [7]) was 0, the “Redroot pigweed plant response rating” value (pigweed; [1]) was 0 and the “Redroot pigweed plant response rating (0 to 10 scale)” value (pigweed; Preemergence, Rate 125 g/ha) was 0. The “Redroot pigweed plant response rating” value (pigweed; [2]) was 0, the “Redroot pigweed plant response rating” value (pigweed; [3]) was 0 and the “Redroot pigweed plant response rating” value (pigweed; [4]) was 0. The “Redroot pigweed plant response rating” value (pigweed; [5]) was 0, the “Plant response rating, Redroot pigweed” value (pigweed; [6]) was 4 and the “Plant response rating, Redroot pigweed” value (pigweed; [7]) was 7. The “Soybean plant response rating” value (soybean; [1]) was 0, the “Soybean plant response rating (0 to 10 scale)” value (soybean; Preemergence, Rate 125 g/ha) was 0 and the “Soybean plant response rating” value (soybean; [2]) was 0. The “Soybean plant response rating” value (soybean; [3]) was 0, the “Soybean plant response rating” value (soybean; [4]) was 2 and the “Soybean plant response rating” value (soybean; [5]) was 2. For the same compound, the “Plant response rating, Soybean” value (soybean; [6]) was 1, the “Plant response rating, Soybean” value (soybean; [7]) was 3 and the “Morningglory plant response rating” value (morningglory; [1]) was 0. The “Morningglory plant response rating (0 to 10 scale)” value (morningglory; Preemergence, Rate 125 g/ha) was 0, the “Morningglory plant response rating” value (morningglory; [2]) was 0 and the “Morningglory plant response rating” value (morningglory; [3]) was 0. For the same compound, the “Morningglory plant response rating” value (morningglory; [4]) was 4, the “Morningglory plant response rating” value (morningglory; [5]) was 6 and the “Plant response rating, Morningglory” value (morningglory; [6]) was 8. For the same compound, the “Plant response rating, Morningglory” value (morningglory; [7]) was 8, the “Blackgrass plant response rating” value (blackgrass; [1]) was 0 and the “Blackgrass plant response rating (0 to 10 scale)” value (blackgrass; Preemergence, Rate 125 g/ha) was 1. The “Blackgrass plant response rating” value (blackgrass; [2]) was 2, the “Blackgrass plant response rating” value (blackgrass; [3]) was 7 and the “Blackgrass plant response rating” value (blackgrass; [4]) was 0. The “Blackgrass plant response rating” value (blackgrass; [5]) was 0, the “Plant response rating, Blackgrass” value (blackgrass; [6]) was 3 and the “Plant response rating, Blackgrass” value (blackgrass; [7]) was 7.
